Data reported in patent publication US11773137B2, “Arid5a peptide inhibitors” (KING FAISAL UNIVERSITY, priority 2019, dated 2023).
Where no end group is shown, it is not given here.

Test system: polarized Th17 cells
Test: IL-17 production by naïve CD4+ T cells cultured under Th17-polarizing conditions
Format: cell-based
Details: PIA at 15, 30 and 45 μM
Protocol: Naïve CD4^+ T cells were isolated from the spleen using MACS® CD4^+CD62L^+ isolation kit (Miltenyi Biotec). The isolated CD4^+CD62L^+ T cells were cultured in the presence of anti-CD3/CD28 dynabeads (Invitrogen), IL-6 (30 ng/mL; R&D Systems), transforming growth factor TGF-β1 (4 ng/mL; R&D Systems), anti-interferon IFN-γ and anti-IL-4 (10 μg/mL; Biolegend) for 72 h.
The intensities of Arid5a immunoblot bands and IL-17 concentrations are presented as mean±SD from at least three independent experiments produced similar results. The statistical significance between mean values was tested by one-way ANOVA. *p<0.05 was considered significant.
Arid5a plays an important role in the production of IL-17, a cytokine that plays pivotal roles in chronic inflammation and autoimmune diseases such as MS and rheumatoid arthritis, and cancer. Therefore, the effects of PIA (SEQ ID NO: 2) on IL-17 production by naïve CD4^+ cells cultured under Th17-polarizing conditions were examined. The CD4^+CD62L^+ T cells were cultured in the presence of anti-CD3/CD28 dynabeads, IL-6, TGF-β1, anti-IFN-γ and anti-IL-4.

Sequence: ACTVGGYE [PIA, ACTVGGYE]
- cell viability: no significant effects on cell viability
